In publication PMC3961306, “Comparison of the Cancer Gene Targeting and Biochemical Selectivities of All Targeted Kinase Inhibitors Approved for Clinical Use” (PLoS ONE, 2014):

Columns and labels:
Test in all cases: Kinase profiling in a biochemical assay panel (mobility shift assays and ELISA), %-inhibition at 1 μM; selectivity entropy
[1] = biological target: panel of more than 300 wild-type and mutant kinases (313 kinase panel) (Homo sapiens, UniProt P07332); settings: kinase FES; compound at 1 μM
[2] = biological target: panel of more than 300 wild-type and mutant kinases (313 kinase panel) (Homo sapiens, UniProt Q86V86)
[3] = biological target: panel of more than 300 wild-type and mutant kinases (313 kinase panel) (Homo sapiens, UniProt Q04759)
[4] = biological target: panel of more than 300 wild-type and mutant kinases (313 kinase panel) (Homo sapiens, UniProt Q9UM73, L1196M)
[5] = biological target: panel of more than 300 wild-type and mutant kinases (313 kinase panel) (Homo sapiens, UniProt Q96RG2); settings: kinase PASK; 1 μM
[6] = biological target: panel of more than 300 wild-type and mutant kinases (313 kinase panel) (Homo sapiens, UniProt Q9UK32)
[7] = biological target: panel of more than 300 wild-type and mutant kinases (313 kinase panel) (Homo sapiens, UniProt Q13882)
[8] = biological target: panel of more than 300 wild-type and mutant kinases (313 kinase panel) (Homo sapiens, UniProt Q15759)
[9] = biological target: T1, panel of more than 300 wild-type and mutant kinases (313 kinase panel) (Homo sapiens, UniProt P54753)
T1 sequence (P54753 34-998): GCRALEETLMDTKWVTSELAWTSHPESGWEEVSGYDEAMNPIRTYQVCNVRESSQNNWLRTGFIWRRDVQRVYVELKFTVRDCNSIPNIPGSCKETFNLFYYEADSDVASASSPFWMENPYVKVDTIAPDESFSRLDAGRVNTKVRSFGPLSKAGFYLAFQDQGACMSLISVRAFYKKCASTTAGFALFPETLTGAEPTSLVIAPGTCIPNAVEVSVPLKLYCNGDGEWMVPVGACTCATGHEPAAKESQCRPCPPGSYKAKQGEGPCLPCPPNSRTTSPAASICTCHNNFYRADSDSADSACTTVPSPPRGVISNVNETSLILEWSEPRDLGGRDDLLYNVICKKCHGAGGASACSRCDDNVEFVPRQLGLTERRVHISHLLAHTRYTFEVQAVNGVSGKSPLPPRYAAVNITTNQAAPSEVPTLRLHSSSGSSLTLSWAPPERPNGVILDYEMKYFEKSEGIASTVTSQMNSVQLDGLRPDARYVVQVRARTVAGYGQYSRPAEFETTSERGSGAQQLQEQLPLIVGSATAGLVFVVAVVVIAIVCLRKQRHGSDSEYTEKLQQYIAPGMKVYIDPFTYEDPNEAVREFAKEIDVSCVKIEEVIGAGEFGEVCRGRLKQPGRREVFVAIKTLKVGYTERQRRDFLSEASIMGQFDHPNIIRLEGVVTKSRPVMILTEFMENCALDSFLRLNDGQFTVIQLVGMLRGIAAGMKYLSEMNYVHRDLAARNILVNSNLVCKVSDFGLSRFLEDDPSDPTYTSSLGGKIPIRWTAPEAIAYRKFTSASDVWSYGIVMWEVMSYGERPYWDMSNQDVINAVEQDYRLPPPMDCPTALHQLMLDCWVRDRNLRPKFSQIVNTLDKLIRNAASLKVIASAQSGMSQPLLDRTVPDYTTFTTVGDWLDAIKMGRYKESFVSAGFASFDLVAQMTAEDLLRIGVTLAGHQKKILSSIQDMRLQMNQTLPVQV

[10] = biological target: panel of more than 300 wild-type and mutant kinases (313 kinase panel) (Homo sapiens, UniProt P19525)
[11] = biological target: T2, panel of more than 300 wild-type and mutant kinases (313 kinase panel) (Homo sapiens, UniProt Q13470)
T2 sequence (Q13470 1-666): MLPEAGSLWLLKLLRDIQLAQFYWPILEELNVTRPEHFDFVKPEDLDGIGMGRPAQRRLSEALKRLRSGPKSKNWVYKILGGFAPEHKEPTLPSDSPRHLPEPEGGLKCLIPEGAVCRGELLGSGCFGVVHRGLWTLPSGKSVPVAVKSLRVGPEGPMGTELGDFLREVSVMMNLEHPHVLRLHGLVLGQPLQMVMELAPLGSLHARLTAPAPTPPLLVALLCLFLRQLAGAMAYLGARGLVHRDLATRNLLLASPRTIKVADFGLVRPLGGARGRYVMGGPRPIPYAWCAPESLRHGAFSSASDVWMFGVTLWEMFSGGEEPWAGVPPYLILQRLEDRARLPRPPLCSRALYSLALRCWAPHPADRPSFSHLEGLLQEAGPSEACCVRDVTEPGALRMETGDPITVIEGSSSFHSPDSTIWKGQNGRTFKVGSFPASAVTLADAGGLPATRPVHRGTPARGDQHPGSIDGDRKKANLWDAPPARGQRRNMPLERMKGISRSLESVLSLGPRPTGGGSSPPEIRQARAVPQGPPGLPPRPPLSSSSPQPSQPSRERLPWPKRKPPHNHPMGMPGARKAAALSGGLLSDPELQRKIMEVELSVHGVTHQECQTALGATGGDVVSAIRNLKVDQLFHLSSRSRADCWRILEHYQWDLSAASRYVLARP

[12] = kinase ALK(L1196M), 1 μM compound

| SMILES | %-inhibition of FES [1] [%] | %-inhibition of PIM3 ([2]; kinase PIM3, 1 μM) [%] | %-inhibition of PKCθ ([3]; kinase PKCθ, 1 μM) [%] | %-inhibition, ALK(L1196M) ([4]; 1 µM) [%] | %-inhibition of PASK [5] [%] | %-inhibition of RSK4 ([6]; kinase RSK4, 1 μM) [%] | %-inhibition, BRK ([7]; kinase BRK, 1 μM compound) [%] | %-inhibition of p38β ([8]; 1 µM) [%] | %-inhibition of EPHB3 ([9]; 1 µM) [%] | %-inhibition of PKR ([10]; kinase PKR, 1 μM) [%] | %-inhibition of TNK1 ([11]; kinase TNK1, 1 μM) [%] | %-inhibition, ALK(L1196M) [4, 12] [%] | %-inhibition of p38β ([8]; kinase p38β, 1 μM) [%] | %-inhibition of TNK1 ([11]; 1 µM) [%] | %-inhibition of PKCθ ([3]; 1 µM) [%] | %-inhibition of RSK4 ([6]; 1 µM) [%] | %-inhibition, BRK ([7]; 1 µM) [%] | %-inhibition of EPHB3 ([9]; kinase EPHB3, compound at 1 μM) [%] | %-inhibition of PIM3 ([2]; 1 µM) [%] | %-inhibition of PKR ([10]; 1 µM) [%] |
| --- | --- | --- | --- | --- | --- | --- | --- | --- | --- | --- | --- | --- | --- | --- | --- | --- | --- | --- | --- | --- |
| N#CC[C@H](C1CCCC1)n1cc(-c2ncnc3[nH]ccc23)cn1 [ruxolitinib] | 3 | -9 | -1.47 | 79 | 0.47 | 3.16 | -4 | -0.778 | 2.73 | -6 | 31 |  |  |  |  |  |  |  |  |  |
| CC(=O)Nc1cccc(-n2c(=O)n(C3CC3)c(=O)c3c(Nc4ccc(I)cc4F)n(C)c(=O)c(C)c32)c1 [trametinib] | -1.55 | 8.44 | 0.388 |  | -0.187 | 0.208 | -5.53 |  | -5.47 | 1.13 |  | -3.42 | 2.31 | -2.58 |  |  |  |  |  |  |
| CS(=O)(=O)CCNCc1ccc(-c2ccc3ncnc(Nc4ccc(OCc5cccc(F)c5)c(Cl)c4)c3c2)o1 [lapatinib] | 5 | -3.44 |  |  | -5 |  |  |  |  | -0.192 | -8.45 | -3 | -10 |  | 0 | 2.39 | 63 | 5 |  |  |
| CO[C@H]1C[C@@H]2CC[C@@H](C)[C@@](O)(O2)C(=O)C(=O)N2CCCC[C@H]2C(=O)O[C@H]([C@H](C)C[C@@H]2CC[C@@H](OCCO)[C@H](OC)C2)CC(=O)[C@H](C)/C=C(\C)[C@@H](O)[C@@H](OC)C(=O)[C@H](C)C[C@H](C)/C=C/C=C/C=C/1C [everolimus] | -2.38 | -4 | -8 |  | -9 | -8 | -4.32 |  |  | -8.45 | -0.4 | -3.63 | -4.49 |  |  |  |  | -5 |  |  |
| CNC(=O)c1cc(Oc2ccc(NC(=O)Nc3ccc(Cl)c(C(F)(F)F)c3)c(F)c2)ccn1 [regorafenib] | -0.247 | -6.53 | -7.47 |  | 0.282 | -1.19 | 20 |  |  | -4.48 | 47 | 0.358 | 98 |  |  |  |  | 22 |  |  |
| Cc1cn(-c2cc(NC(=O)c3ccc(C)c(Nc4nccc(-c5cccnc5)n4)c3)cc(C(F)(F)F)c2)cn1 [nilotinib] | -19 |  | -3.49 |  | -3 | 11 | 75 |  |  |  |  | -42 | 96 | -4 |  |  |  | 92 | 13 | 0 |
